Measurements as given in patent US9636380B2 (priority 2013, dated 2017).

How the values were obtained:
AMPA receptor = assay: Whole-cell recording of light-evoked EPSCs (LDT inputs) in DA neurons projecting to NAc lateral shell, midbrain slices; type: cell-based, mice; conditions: 10 μM bath perfusion; stimulation of LDT fibers; −70 mV
Protocol: (§1) Mice were deeply anaesthetized with pentobarbital (200 mg/kg ip; Ovation Pharmaceuticals, Deerfield, Ill.). Coronal midbrain slices (250 μm) were prepared after intracardial perfusion with ice-cold artificial cerebrospinal fluid (ACSF) containing elevated sucrose (in mM): 50 sucrose, 125 NaCl, 25 NaHCO3, 2.5 KCl, 1.25 NaH2PO4, 0.1 CaCl2, 4.9 MgCl2, and 2.5 glucose (oxygenated with 95% O2/5% CO2). After 90 min of recovery, slices were transferred to a recording chamber and perfused continuously at 2-4 ml/min with oxygenated ACSF (125 NaCl, 25 NaHCO3, 2.5 KCl, 1.25 NaH2PO4, 11 glucose, 1.3 MgCl2, and 2.5 CaCl2) at ˜30° C. […]
(§2) Labeled DA neurons were visualized with a 40× water-immersion objective on an upright fluorescent microscope (BX51WI, Olympus USA) equipped with infrared-differential interference contrast (IR-DIC) video microscopy and epifluorescence (Olympus USA) for detection of retrobeads. […] A dual lamp house adapter (Olympus USA) was used to switch between fluorescence lamp and LED light source. Excitatory postsynaptic currents (EPSCs) were recorded in whole-cell voltage clamp (Multiclamp 700B, Molecular Devices, CA, USA), filtered at 2 KHz, digitized at 10 KHz (ITC-18 interface, HEKA) and collected on-line using custom Igor Pro software (Wavemetrics, Lake Oswego, Oreg., USA). […]

GABAA receptors = assay: Whole-cell recording of light-evoked IPSCs (LHb inputs) in DA cells projecting to NAc lateral shell, midbrain slices; type: cell-based, mice; conditions: 50 μM bath perfusion; LHb input stimulation; n=3; p<0.0001
Protocol: as §1, §2

Molecule | Effect on light-evoked EPSCs in DA neurons projecting to NAc lateral shell (AMPA receptor) | Effect on light-evoked IPSCs in DA cells projecting to NAc lateral shell (GABAA receptors)
N#Cc1cc2[nH]c(=O)c(=O)[nH]c2cc1[N+](=O)[O-] [CNQX] | blocked | 
picrotoxin |  | blocked
